The test system of the experiment is P. aeruginosa (ATCC 19660). The experiment in a line: Antibiotic susceptibility (MIC, Microscan® MIC Plus Type 2 panel) with rBPI21/P123 and EDTA. The class given is cell-based. Set-up: key to susceptibility interpretation of MIC (superscript): R: resistant; I: intermediate; S: susceptible. Particulars: for effect of EDTA added to the rBPI21/P123 formulation on susceptibility of the strain to the antibiotic: summary of Table 17. How it is done:
In additional experiments, a BPI protein product, rBPI21, was formulated with an anti-bacterial activity enhancing poloxamer, specifically PLURONIC P123, and with various concentrations of EDTA, and was evaluated for its effect on the antibiotic susceptibility of a Pseudomonas aeruginosa (ATCC 19660). Antibiotic susceptibility was determined using Microscan® panel plates (Dade Microscan, West Sacramento, Calif.) that allow simultaneous determination of minimum inhibitory concentrations for a number of different antibiotics.
The antimicrobial susceptibility tests performed on the Microscan® panel plates are miniaturizations of the broth dilution susceptibility test. Antimicrobial agents are serially diluted in Mueller-Hinton broth (supplemented with calcium and magnesium, or with sodium chloride for oxacillin, or with thymidine phosphorylase for trimethoprim, sulfamethoxazole and trimethoprim/ sulfamethoxazole) to concentrations bridging the range of clinical interest. One well on the 96-well Microscan® plate is a growth control well that contains dehydrated broth only. The remaining wells contain dehydrated broth and antibiotic (or broth and biochemical reagent indicator), which is rehydrated to the desired concentration by inoculation of a standardized suspension of test organism. The chromogenic biochemical agent indicators are used to identify and characterize the species of bacteria based on detection of pH changes and substrate utilization. […] Gram-negative and gram positive organisms may be tested using any of the Microscan® panel plates (Microscan®, Dade Microscan, West Sacramento, Calif.). In these experiments with P. aeruginosa, the MIC Plus Type 2 panel plates were used. The concentrations of antibiotics tested in this panel plate are shown below in Table 16. The antibiotic susceptibility standards (interpretation of an MIC as resistant, intermediate or susceptible according to Microscan®'s NCCLS-derived standards) applicable to the gram-negative organisms that may be tested in each panel plate appear below in Table 16A.
For these experiments with P. aeruginosa, the following procedure was performed: The organism was streaked onto TSA plates (Remel, Lenexa, Kans.) and incubated for 18-24 hours overnight. Well-isolated A, colonies from the plates were emulsified in 3 ml of sterile Inoculum Water d(catalog no. B1015-2, MicrosScan® system, Dade Microscan, West Sacramento, Calif.) to a final turbidity equivalent to 0.5 McFarland Barium Sulfate standard. This cell suspension was vortexed for 2 to 3 seconds and 100 μl was transferred to glass tubes containing 25 ml of Inoculum Water with Pluronic-D (catalog no. B1015-7, MicroScan® system, Dade Microscan, West Sacramento, Calif.) (hereinafter “Pluronic Inoculum Water”), or 25 ml of Pluronic Inoculum Water into which rBPI21 in 0.2% PLURONIC P123, 0.002% TWEEN 80, 5mM sodium citrate, 150 mM NaCl (“rBPI21/P123”) had been diluted to 64 μg/ml rBPI21.
The 25 ml of this inoculum containing rBPI21 was mixed by inversion and poured into a tray. The inoculum was drawn up into a manual 96-well pipetting system (RENOK^− rehydrator-inoculator system, Dade Microscan, West Sacramento, Calif.) designed for use with the Microscan® panel plates, and 110 μl of the inoculum was delivered to each well of a Microscan® MIC Plus Type 2 panel plate. When added to the wells, this inoculum achieves a final bacterial concentration of 4×10^5 to 7×10^5 CFU/ml. The panel plates were then incubated at 35° C. for 15-24 hours and read visually for cell growth.
No growth was defined as a slight whiteness in the well or a clear broth. Growth appeared as turbidity which could take the form of a white haze throughout the well, a white button in the center of the well, or a fine granule growth throughout the well. All wells were read against a black indirectly lighted background. Visual results of the biochemical reactions were read into a database for bacterial identification.

[1] abbreviates: rBPI21/P123 at 64 μg/ml rBPI21, With 0% EDTA.
The mark [2] stands for this setting: rBPI21/P123 at 64 μg/ml rBPI21, With 0.01% EDTA.
The mark [3] stands for this setting: rBPI21/P123 at 64 μg/ml rBPI21, With 0.05% EDTA.
Where [4] appears, read: rBPI21/P123 at 64 μg/ml rBPI21, With 0.1% EDTA.

Regarding `C[C@@H](O)[C@H]1C(=O)N2C(C(=O)O)=C(SCCN=CN)C[C@H]12` [Imipenem], the “Minimum Inhibitory Concentration of Antibiotic” value (from here on “Minimum Inhibitory Concentration”) is, setting by setting: (Control (No BPI21)) 1 µg/mL; under setting [1], 1 µg/mL; under setting [2], less than 0.5 µg/mL; under setting [3], less than 0.5 µg/mL; under setting [4], less than 0.5 µg/mL. The “susceptibility interpretation of MIC (superscript)” value (shortened to “susceptibility interpretation”) was “S” (Control (No BPI21)); “S” under setting [1]; “S” under setting [2]; “S” under setting [3]; “S” under setting [4].

For “Amoxicillin/K Clavulanate [Amox/K Clavulanate]”, the “effect of EDTA added to the rBPI21/P123 formulation on susceptibility of the strain to the antibiotic” value (“effect of EDTA added” for short) is on record as “reversing resistance”. Moreover, for the setting “Control (No BPI21)”, the “Minimum Inhibitory Concentration” value is greater than 32 µg/mL and the “susceptibility interpretation” value is “R”. Besides, under setting [1], the “Minimum Inhibitory Concentration” value was greater than 32 µg/mL and the “susceptibility interpretation” value was “R”. For the same compound, under setting [2], the “Minimum Inhibitory Concentration” value was less than 1 µg/mL and the “susceptibility interpretation” value is “S”. Further, under setting [3], the “Minimum Inhibitory Concentration” value amounted to 32 µg/mL and the “susceptibility interpretation” value is listed as “R”. Moreover, under setting [4], the “Minimum Inhibitory Concentration” value was less than 1 µg/mL and the “susceptibility interpretation” value is recorded as “S”.

`CO/N=C(\C(=O)N[C@@H]1C(=O)N2C(C(=O)O)=C(COC(C)=O)CS[C@H]12)c1csc(N)n1` [Cefotaxime]: the “effect of EDTA added” value is on record as “increasing the susceptibility”. In addition, for the setting “Control (No BPI21)”, the “Minimum Inhibitory Concentration” value came out at 32 µg/mL and the “susceptibility interpretation” value is on record as “I”. Moreover, under setting [1], the “Minimum Inhibitory Concentration” value was 16 µg/mL and the “susceptibility interpretation” value was “I”. Moreover, under setting [2], the “Minimum Inhibitory Concentration” value is 4 µg/mL and the “susceptibility interpretation” value was “S”. Further, under setting [3], the “Minimum Inhibitory Concentration” value was less than 2 µg/mL and the “susceptibility interpretation” value was “S”. Also, under setting [4], the “Minimum Inhibitory Concentration” value is less than 2 µg/mL and the “susceptibility interpretation” value was “S”.

As for Ampicillin/Sulbactam [Amp/Sulbact], the “effect of EDTA added” value is reported as “reversing resistance”. Further, for the setting “Control (No BPI21)”, the “Minimum Inhibitory Concentration” value is greater than 32 µg/mL and the “susceptibility interpretation” value is given as “R”. For the same compound, under setting [1], the “Minimum Inhibitory Concentration” value is greater than 32 µg/mL and the “susceptibility interpretation” value is reported as “R”. Besides, under setting [2], the “Minimum Inhibitory Concentration” value was less than 1 µg/mL and the “susceptibility interpretation” value was “S”. Moreover, under setting [3], the “Minimum Inhibitory Concentration” value came to 16 µg/mL and the “susceptibility interpretation” value is “I”. Under setting [4], the “Minimum Inhibitory Concentration” value is 16 µg/mL and the “susceptibility interpretation” value was “I”.

On to `O=C(O)C1=C(CSc2nnnn2CS(=O)(=O)O)CS[C@@H]2[C@H](NC(=O)[C@H](O)c3ccccc3)C(=O)N12` [Cefonicid], for which the “effect of EDTA added” value is “reversing resistance”. Where the note is “Control (No BPI21)”, the “Minimum Inhibitory Concentration” value was greater than 16 µg/mL and the “susceptibility interpretation” value is “R”. Moreover, under setting [1], the “Minimum Inhibitory Concentration” value was greater than 16 µg/mL and the “susceptibility interpretation” value is given as “R”. Under setting [2], the “Minimum Inhibitory Concentration” value is less than 2 µg/mL and the “susceptibility interpretation” value is “S”. Besides, under setting [3], the “Minimum Inhibitory Concentration” value was less than 2 µg/mL and the “susceptibility interpretation” value is on record as “S”. Further, under setting [4], the “Minimum Inhibitory Concentration” value is less than 2 µg/mL and the “susceptibility interpretation” value is “S”.

The record behind these values is patent US6849598B1, “Therapeutic compositions comprising bactericidal/permeability-increasing (BPI) protein products” (XOMA, priority 1995, dated 2005).
